From patent publication US20230312759A1, “BISPECIFIC ANTIBODY AGAINST CD3 AND CD20 IN COMBINATION THERAPY FOR TREATING DIFFUSE LARGE B-CELL LYMPHOMA” (GENMAB A/S, priority 2020, published 2023)

Key:
Raji cells = assay type: cell-based; details: with T cells, 48 hours, epcoritamab 0.01 pg/mL-100 ng/mL, gemcitabine, oxaliplatin at EC30 concentrations
Method: (§1) Briefly, human Burkitt lymphoma (Raji) and DLBCL (SU-DHL-4) cell lines were used as target cells. Cells were cultured in culture medium (RPMI 1640 with HEPES and L-Glutamine supplemented with 10% heat-inactivated donor bovine serum with iron, and 1% [v/v]penicillin/streptomycin) to which 2 mM L-glutamine and 1 mM sodium pyruvate were added, at 37° C., 5% CO2. T cells, isolated from human healthy donor buffy coats (Sanquin) by negative selection using the RosetteSep™ Human T Cell Enrichment Cocktail (Stemcell Technologies), followed by density centrifugation over a Ficoll gradient, both according to the manufacturer's instructions, were used as effector cells. Isolated cells were washed twice in phosphate buffered saline (PBS) and counted using acridine orange/propidium iodide (AO/PI) viability staining solution (Nexcelom Bioscience) on a Cellometer® Auto 2000 Cell Viability Counter. […] B-cell viability and T-cell activation were measured by flow cytometry (count of CD22-positive cells; expression of the T-cell activation markers CD69, CD25, programmed cell death protein 1 (PD-1), and CD107 [lysosomal associated membrane protein 1; LAMP-1] on CD4+ and CD8+ T cells). Absolute cell numbers were determined by adding Accucheck Counting beads (100 μL/well) (Thermofisher) and calculated as follows:
(§2) Correction factor=([bead count1+bead count2]/average bead countplate)
(§3) Absolute cell number=[cell countsample/correction factor]
(§4) The percentage cytotoxicity was calculated as follows:
(§5) % cytotoxicity=100−([absolute cell numbersample/absolute cell numberno antibody]×100%)

SU-DHL-4 cells = assay type: cell-based; details: SU-DHL-4, with T cells, 48 hours; epcoritamab 0.01 pg/mL-100 ng/mL; gemcitabine, oxaliplatin at EC30 concentrations
Method: as §1, §2, §3, §4, §5

R/R B-NHL = assay: Ongoing clinical trial of epcoritamab monotherapy (NCT03625037); assay type: in vivo, human; details: R/R B-NHL patients, preliminary data
Text: Summary of Ongoing Clinical Trial with Epcoritamab Epcoritamab as monotherapy is currently in a clinical trial for the treatment of relapsed/refractory (R/R) B-NHL (ClinicalTrials.gov Identifier: NCT03625037).

[1] = test system: T cells incubated with SU-DHL-4 cells; assay: In vitro T-cell activation assay, T cells incubated with SU-DHL-4 cells; assay type: cell-based, human; details: SU-DHL-4 target cells, 48 hours
Method: as §1, with “follows: […]” for “follows:”

[2] = test system: T cells incubated with Raji cells; assay: In vitro T-cell activation assay, T cells incubated with Raji cells; assay type: cell-based, human; details: Raji target cells, 48 hours
Method: as §1, with “follows: […]” for “follows:”

[3] = epcoritamab 0.01 pg/mL-100 ng/mL, flow cytometry
[4] = gemcitabine 1 nM, oxaliplatin 0.3 μM

Nc1ccn(C2OC(CO)C(O)C2(F)F)c(=O)n1 (centres unmarked) [gemcitabine, 4-amino-1-[3,3-difluoro-4-hydroxy-5-(hydroxymethyl)oxolan-2-yl]-1,2-dihydropyrimidin-2-one]
cytotoxicity of B cells (decrease in the number of viable B cells) (Raji cells): induced cytotoxicity of B cells
cytotoxicity of B cells (decrease in the number of viable B cells) (SU-DHL-4 cells): induced cytotoxicity of B cells

O=C1[O][Pt]2([NH][C@@H]3CCCC[C@H]3[NH]2)[O]C1=O [oxaliplatin, [(1R,2R)-cyclohexane-1,2-diamine](ethanedioato-O,O′)platinum(II)]
cytotoxicity of B cells (decrease in the number of viable B cells) (Raji cells): induced cytotoxicity of B cells
cytotoxicity of B cells (decrease in the number of viable B cells) (SU-DHL-4 cells): induced cytotoxicity of B cells

epcoritamab: IgG1 bispecific CD3×CD20 antibody; heavy and light chains of SEQ ID NOs: 24 and 25 (CD3 arm), 26 and 27 (CD20 arm); CAS 2134641-34-0
tolerated dose (R/R B-NHL): at least 48 mg
cytotoxicity of B cells (decrease in the number of viable B cells) (Raji cells): concentration-dependent T-cell-mediated cytotoxicity
cytotoxicity of B cells (decrease in the number of viable B cells) (SU-DHL-4 cells): concentration-dependent T-cell-mediated cytotoxicity
T-cell activation (upregulation of CD69, CD25, PD-1 and LAMP-1 expression) [1, 3]: concentration-dependent activation of both CD4+ (data not shown) and CD8+ T cells
Epcoritamab-induced T-cell activation in the presence of gemcitabine, oxaliplatin, or the combination [1, 4]: not affected
T-cell activation (upregulation of CD69, CD25, PD-1 and LAMP-1 expression) [2, 3]: concentration-dependent activation of both CD4+ (data not shown) and CD8+ T cells
Epcoritamab-induced T-cell activation in the presence of gemcitabine, oxaliplatin, or the combination [2, 4]: not affected
